Results as given in article PMC5318439, “The Novel Toll-Like Receptor 2 Agonist SUP3 Enhances Antigen Presentation and T Cell Activation by Dendritic Cells” (Frontiers in Immunology, 2017).
Where a SMILES comes first, the peptide text is derived from it. The star is where a group is joined. X1 = CCCCCCCCCCCCCCNC(=O)OC[C@H](C*)OC(=O)NCCCCCCCCCCCCCC; Palmitoyl = CCCCCCCCCCCCCCCC(=O)*

Legend:
[1] = system: OVA-expressing B16 melanoma cells (B16-OVA); experiment: B16-OVA melanoma lung metastasis tumor model after immunization; type: in vivo, mice; conditions: immunized OCS + 2 nmol per mouse for 30 days, B16-OVA 5 × 10^5 cells i.v., 16 days after challenge; vs OCS alone or OCS with Pam3
Excerpt: Tumor model was applied as previously described with some modifications ([42]). Briefly, mice were immunized by OCS alone, OCS with Pam3 (2 nmol per mouse), or OCS with SUP3 (2 nmol per mouse) for 30 days. Then mice were i.v. injected with OVA-expressing B16 melanoma cells (B16-OVA) (5 × 10^5 cells per mouse). After 16 days, the numbers of metastatic tumors in lung were counted.
Figure 2 SUP3 induced more vigorous cytotoxic T lymphocytes (CTLs) responses than Pam3CSK4 without excessive production of inflammatory cytokines in vivo. […] The percentages of pentamer positive cells (CD19^− CD3^+ CD8^+ SIINFEKL/H-2Kb-Pentamer^+) in spleens, i.e., the OVA-specific CD8^+ T cells, were determined by flow cytometry (A) and the statistic calculation is presented in (B). […] (C,D) Mice were immunized as in (A) for 30 days, then inoculated with OVA-expressing B16 melanoma cells (B16-OVA) (5 × 10^5 cells per mouse) by i.v. injection and analyzed for metastatic tumor formation in the lung 16 days after inoculation. […] (E) Mice were i.v. injected with SUP3 (2 nmol per mouse), Pam3 (2 nmol per mouse), or lipopolysaccharide (LPS) (1 µg per mouse) for 1 h, the serum was collected, and the levels of different cytokines were determined by ELISA. “n.d.” indicates “not detected.” *p < 0.05, **p < 0.01. […]

Plasma stability = type: in vitro ADME; conditions: compared with Pam3, Figure S3B
Excerpt: Pam3 is a lipopeptide and serves as a TLR2 agonist through binding to TLR2/TLR1 heterodimer. Although Pam3 is widely used as a TLR2 agonist, some intrinsic problems remain in detailed mechanism studies and drug development. The two ester groups of Pam3 can be easily hydrolyzed in plasma, and the hydroxyl group in serine could be readily oxidized in physiological conditions (Figure S1A in Supplementary Material). […] In addition, we displaced serine residue in Pam3 with glycine residue to eliminate this chiral center (Figures S1A,B in Supplementary Material). Since the third lysine residue in Pam3 is crucial for H bonding, we kept three lysine residues in the new molecule and removed the forth lysine residue to further reduce the molecular weight of the new TLR2 agonist, (2S,5S,8S,14R,18R)-2,5,8-tris(4-aminobutyl)-4,7,10,13,21-pentaoxo-14-palmitamido-18-((tetradecylcarbamoyl)oxy)-20-oxa-16-thia-3,6,9,12,22-pentaazahexatriacontan-1-oic acid. It is termed SUP3 (Figure 1A; Figures S1A,B in Supplementary Material). Chemical characterization of SUP3 by ^1H nuclear magnetic resonance and electrospray ionization mass spectrum analysis further confirm the structure (Figures S2A,B in Supplementary Material).

[2] = Antigen deposition (OVA-AF647) in draining lymph nodes; type: in vivo, mice; conditions: OVA-AF647 25 µg per mouse s.c. with 2 nmol per mouse, 24 h; vs OVA alone or OVA with Pam3
Protocol: Wild-type mice were s.c. injected with OVA-AF647 alone (25 µg per mouse; Molecular Probes O-34784), or mixtures of OVA-AF647 with SUP3 (2 nmol per mouse) or Pam3 (2 nmol per mouse) at groin. Inguinal lymph nodes were isolated 24 h post-injection, and then immune cells were analyzed by flow cytometry.
Figure 6 SUP3 enhanced antigen deposition in draining lymph nodes. Mice were immunized at groin by s.c. injection of ovalbumin (OVA)-Alexa Fluor 647 (AF647) (25 µg per mouse) with or without SUP3 (2 nmol per mouse) or Pam3 (2 nmol per mouse) for 24 h. Inguinal lymph nodes were isolated, and immune cells were analyzed for levels of AF647 fluorescence by flow cytometry (A). The number of OVA-AF647 positive cells was calculated in (B). Representative data were from two independent experiments with three mice in each group.

plasma stability (Plasma stability): much higher than Pam3
Compound: CCCCCCCCCCCCCCCC(=O)N[C@@H](CSC[C@@H](COC(=O)NCCCCCCCCCCCCCC)OC(=O)NCCCCCCCCCCCCCC)C(=O)NCC(=O)N[C@@H](CCCCN)C(=O)N[C@@H](CCCCN)C(=O)N[C@@H](CCCCN)C(=O)O [SUP3, (2S,5S,8S,14R,18R)-2,5,8-tris(4-aminobutyl)-4,7,10,13,21-pentaoxo-14-palmitamido-18-((tetradecylcarbamoyl)oxy)-20-oxa-16-thia-3,6,9,12,22-pentaazahexatriacontan-1-oic acid] (Palmitoyl-C(X1)GKKK-OH)
number of metastatic tumors in the lungs [1]: markedly reduced number of tumors in the lungs | numbers of antigen-containing CD8+ cDCs, CD11b+ cDCs, macrophages, and monocytes in inguinal lymph nodes [2]: increased numbers
